Measured values: patent publication US20220273752A1, “MODULATION OF DENDRITIC CELL FUNCTION BY THE PHOSPHOLIPID MESSENGER LPA” (Cornell University, priority 2019, published 2022)

Legend:
bone marrow-derived DCs = test: qPCR and Multiplex cytokine assays in BMDCs treated with LPA and Tunicamycin; type: cell-based, mouse
Procedure: FIG. 4A-4L graphically illustrate that induction of a set of highly tumorigenic and immunomodulatory genes is mainly PERK-dependent in LPA-exposed dendritic cells undergoing endoplasmic reticulum (ER) stress. Bone marrow-derived dendritic cells (BMDCs) from the indicated genotypes were left untreated or were incubated with LPA (100 μM), Tunicamycin (TM, 1 μg/ml) or with the combination of both for 6 hours. Gene expression was determined by qPCR. In all cases data, was normalized to endogenous Actb levels in each sample. These findings have further been confirmed using primary splenic dendritic cells and with an independent ER stressor, Thapsigargin (extensive data not shown). ***P<0.0005, ***P<0.0001. The serine/threonine-protein kinase/endoribonuclease inositol-requiring enzyme 1 α (IRE1α) in humans is encoded by the ERNI gene, and expression of the IRE1α protein is activated during endoplasmic reticulum (ER) stress. TM is a pharmacological ER stressor that causes protein glycosylation defects. FIG. 4A graphically illustrates expression of IL-1, in bone marrow-derived DCs from Ern1^f/f or Ern1^f/f Vav1-Cre (Ern1 knockout) mice with or without co-treatment by ER stressor Tunicamycin (TM) and/or physiological concentrations of LPA. […]

[1] = tested on: bone marrow-derived dendritic cells (BMDCs); test: Bodipy 493/503 staining of intracellular lipids in BMDCs by FACS; type: cell-based, murine; details: 100 μM LPA, 6 hours
Source text: Bodipy 493/503 staining was used to detect intracellular lipids by FACS. ***P<0.0005. FIG. 2B graphically illustrates quantities of Bodipy-stained intracellular lipids in LPA-treated cells compared to untreated cells.

[2] = tested on: bone marrow-derived dendritic cells (BMDCs); test: Antigen presentation: OVA-pulsed BMDCs co-cultured with CFSE-labeled OT-II T cells; type: cell-based, murine; details: 100 μM LPA, 6 hours, then OVA 3 hours, OT-II T cell proliferation 3 days later
Procedure: FIG. 3A-3C illustrate that LPA inhibits the antigen-presenting capacity of dendritic cells. Bone marrow-derived dendritic cells (BMDCs) were exposed to 100 μM LPA for 6 hours and then pulsed with full-length ovalbumin (OVA) for 3 hours.
Cells were washed and co-cultured with OVA-specific OT-II T cells labeled with carboxyfluorescein succinimidyl ester (CFSE, which stains intracellular molecules, typically lysine residues). T cell proliferation was assessed by FACS 3 days later.
FIG. 3C graphically illustrates the division index of proliferating cells as determined by FlowJo analysis. ****P<0.0001.

BMDCs, sDCs and pDCs = test: IFN-β ELISA in DCs stimulated with TLR agonists; type: cell-based, murine; details: Poly (I:C), LPS or CpG ODN1585, LPA 10 uM and 100 uM
Procedure: FIG. 12A-12D illustrate that LPA represses IFN-β production by diverse DC types. Splenic dendritic cells (sDCs), bone marrow dendritic cells (BMDCs) and plasmacytoid dendritic cells (pDCs) were stimulated with Poly (I:C) (a high molecular weight, synthetic analog of double-stranded RNA (dsRNA) that is a potent inducer of interferon), LPS (lipopolysaccharide) or CpG ODN1585 (a synthetic immunostimulatory oligonucleotide) in the presence or absence of LPA (10 uM and 100 uM). IFN-β protein expression levels were determined by ELISA. **P<0.001, ***P<0.0005, ****P<0.0001. FIG. 12A illustrates IFN-β protein expression in splenic DCs (sDCs) after treatment with LPA and/or Poly (I:C). FIG. 12B illustrates IFN-β protein expression in bone marrow dendritic cells (BMDCs) after treatment with LPA and/or Poly (I:C). FIG. 12C illustrates IFN-β protein expression in bone marrow dendritic cells (BMDCs) after treatment with LPS and/or LPA. FIG. 12D illustrates IFN-β protein expression in plasmacytoid DCs (pDCs) after treatment with ODN1585 and/or LPA.
These effects also occurred in diverse DC types such as BMDCs, splenic DCs (sDCs) and plasmacytoid DCs (pDCs) during stimulation through Toll-like Receptors (TLRs) or upon exposure to cancer cells treated with inhibitors of poly ADP-ribose polymerase (PARP) that induce DNA damage. […] The structure of Talazoparib is shown below.

## lysophosphatidic acid [LPA]
Bone marrow-derived DCs; BMDCs co-treated with Tunicamycin (TM) and LPA (100 µM), Multiplex cytokine assays
  production of IL-1b, IL-6, VEGF-a, LIF, M-CSF, GRO-a (IL-8) and MIP1-a: significant PERK-dependent overproduction
Bone marrow-derived DCs; ER-stressed DCs simultaneously exposed to LPA, qPCR
  expression of genes encoding IL-6, IL-1b, Arginase, Cox-2 and Vegf-A: potent upregulation
[1]
  intracellular lipid accumulation in dendritic cells: induces intracellular lipid accumulation
[2]
  antigen-presenting capacity of dendritic cells: inhibits
BMDCs, sDCs and pDCs
  IFN-β protein levels upon TLR agonist stimulation: decreased levels
